Source: patent US8193189B2, “Quinoxaline derivatives as tyrosine kinase activity inhibitors” (Novartis AG, priority 2007, dated 2012)

Tests used:
[1] = target: T1, GST-JAK1(866-1154) (Homo sapiens, UniProt P23458); assay: EPK JAK-family kinases profiling assay (Caliper mobility shift), JAK1; format: biochemical; settings: ATP 40 μM, 50 nM kinase
T1 construct: GST-JAK1(866-1154); made in house
Source text: (§1) All four kinases of the JAK-family kinases were used as purified recombinant GST-fusion proteins, containing the active kinase domains. GST-JAK1(866-1154), GST-JAK3(811-1124), and GST-TYK2(888-1187) were expressed and purified by affinity chromatography at the EPK biology unit. GST-JAK2(808-1132) was purchased from Invitrogen (Carlsbad, USA, #4288).
(§2) The kinase assays were based on the Caliper mobility shift assay using the LabChip 3000 systems. This technology is similar to capillary electrophoresis and uses charge driven separation of substrate and product in a microfluidic chip.
(§3) All kinase reactions were performed in 384 well microtiter plates in a total reaction volume of 18 μl. The assay plates were prepared with 0.1 μl per well of test compound in the appropriate test concentration, as described under the section “preparation of compound dilutions”. The reactions were started by combining 9 μl of substrate mix (consisting of peptide and ATP) with 9 μl of kinase dilution. The reactions were incubated for 60 minutes at 30° C. and stopped by adding 70 μl of stop buffer (100 mM Hepes, 5% DMSO, 0.1% Coating reagent, 10 mM EDTA, 0.015% Brij 35).
(§4) Fluorescently labeled synthetic peptides were used as substrates in all reactions. […] Specific assay conditions are described in Table 1:
(§5) The terminated reactions were transferred to the Caliper LabChip 3000 reader and the turnover of each reaction was measured by determining the substrate/product ratio.
(§6) Test compounds were dissolved in DMSO (10 mM) and transferred into 1.4 mL flat bottom or V-shaped Matrix tubes carrying a unique 2D matrix chip by individual compound hubs. The numbers of these chips were distinctively linked to the individual compound identification numbers. The stock solutions were stored at −20° C. if not used immediately. For the test procedure the vials were defrosted and identified by a scanner whereby a working sheet was generated that guided the subsequent working steps.
(§7) Compound dilutions were made in 96 well plates. This format enabled the assay of maximally 40 individual test compounds at 8 concentrations (single points) including 4 reference compounds. The dilution protocol included the production of pre-dilution plates, master plates and assay plates:
(§8) Pre-dilution plates: 96 polypropylene well plates were used as pre-dilution plates. A total of 4 pre-dilution plates were prepared including 10 test compounds each on the plate positions A1-A10, one standard compound at A11 and one DMSO control at A12. All dilution steps were done on a HamiltonSTAR robot.
(§9) Master plates: 100 μL of individual compound dilutions including standard compound and controls of the 4 “pre-dilution plates” were transferred into a 384 “master plate” including the following concentrations 1′820, 564, 182, 54.6, 18.2, 5.46, 1.82 and 0.546 μM, respectively in 90% of DMSO.
(§10) Assay plates: Identical assay plates were then prepared by pipetting 100 nL each of compound dilutions of the master plates into 384-well “assay plates”. […] The preparation of the master plates were handled by the Matrix PlateMate Plus robot and replication of assay plates by the HummingBird robot.

[2] = tested on: JAK/STAT pathway (JAK1/JAK2-dependent nuclear translocation of STAT1-GFP); assay: Inhibition of the JAK/STAT pathway: IFN-γ stimulated nuclear translocation of STAT1-GFP in HT1080 fibrosarcoma cells; format: cell-based; settings: Homo sapiens, HT-1080; HT1080 STAT1-GFP cells, 100 ng/ml IFN-γ 2 hours, compound added 30 min before; read-out: STAT1translo IC50
Source text: The medium-throughput (96-well format), robust and reproducible cellular assay can be routinely used to assess the functional activation of Janus Kinases (JAKs), based on the nuclear translocation of their substrate, Signal Transducer and Activator of Transcription (STAT). Nuclear translocation can be monitored in HT1080 fibrosarcoma cells stably transfected with STAT1 fused to Green Fluorescence Protein (GFP). Stimulation with interferon-γ (IFN-γ) results in JAK1/JAK2-dependent nuclear translocation of STAT1-GFP that can be quantified using the Cellomics Cyto/NucTrans software package. This assay may be used to provide an assessment of the nuclear-cytoplasmic differential (NCD) of GFP-STAT1 using Hoechst dye to define the boundaries of the nucleus.
Compounds can be dissolved in DMSO to a final stock concentration of 10 mM and stored as aliquots at 4° C. Compounds may be pre-diluted in 100% DMSO at 10 mM, 3 mM 1 mM, 0.3 mM, 0.1 mM, 0.03 mM, 0.01 mM and 0.003 mM. Subsequently, compounds may be diluted in medium and added in 50 μl to the cells. The final compound concentrations tested may be 10 μM, 3 μM 1 μM, 0.3 μM, 0.1 μM, 0.03 μM, 0.01 μM and 0.003 μM and the final DMSO concentration can be 0.1%.
The plates may then be washed once in PBS, and 200 μl PBS finally added per well. The plates, being finally covered with a black adhesive, may be either read directly or stored at 4° C. for later imaging. Where appropriate, the compounds may be added 30 min before stimulation with IFN-γ.
The plates can be read on a Cellomics® ArrayscanII automated fluorescence microscope plate reader equipped with a Mercury-Xenon white light illumination source and a Zeiss Axiovert inverted microscope, using the XF100 dichroic/emission filter cube and matching excitation filters, 10× magnification, and a 0.3 numerical aperture objective. Image acquisition and analysis can be performed using a customized protocol based on the ‘NuclearTranslocation’ Bioapplication (for details, see Appendices). For each well, multiple images (fields) can be acquired until a minimum of 1000 cells are counted using two 2 channels: Channel 1 (Hoechst)=focus+nuclear mask, Channel 2 (GFP)=signal quantification in mask areas as outlined below.
Nuclei may be first identified based on the Hoechst staining and a mask generated for each nucleus that then serves as a template to generate a circle (eroded inwards by 1 pixel) and a 3 pixel-wide collar-like ring (off-set outwards by 1 pixel), in which the nuclear and cytoplasmic intensity of GFP, respectively, are quantified in the corresponding channel. High content analysis yields numerous measurements per cell and the GPF intensity differential between the nuclear and the cytoplasmic masks may be chosen as a measure of sub-cellular GFP-STAT1 relocation. The resulting values may be averaged for all cells in the well to return a single measurement plus standard deviation.

[3] = target: T2, GST-JAK3(811-1124) (Homo sapiens, UniProt P52333); assay: EPK JAK-family kinases profiling assay (Caliper mobility shift), JAK3; format: biochemical; settings: ATP 80 μM, 6 nM kinase
T2 construct: GST-JAK3(811-1124); made in house
T2 sequence (P52333 811-1124): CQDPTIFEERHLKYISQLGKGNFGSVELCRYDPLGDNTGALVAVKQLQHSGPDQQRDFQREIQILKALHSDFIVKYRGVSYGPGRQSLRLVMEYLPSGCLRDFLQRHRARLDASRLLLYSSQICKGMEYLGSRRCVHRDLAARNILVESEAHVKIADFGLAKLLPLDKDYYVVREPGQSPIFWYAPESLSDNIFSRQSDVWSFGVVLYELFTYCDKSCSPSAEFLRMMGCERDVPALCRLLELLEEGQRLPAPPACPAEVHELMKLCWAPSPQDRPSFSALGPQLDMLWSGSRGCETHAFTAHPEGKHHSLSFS
Source text: as §1, §2, §3, §4, §5, §6, §7, §8, §9, §10

[4] = target: T3, GST-JAK2(808-1132) (Homo sapiens, UniProt O60674); assay: EPK JAK-family kinases profiling assay (Caliper mobility shift), JAK2; format: biochemical; settings: ATP 20 μM, 1.8 nM kinase
T3 construct: GST-JAK2(808-1132); purchased Invitrogen (Carlsbad, USA) #4288
T3 sequence (O60674 808-1132): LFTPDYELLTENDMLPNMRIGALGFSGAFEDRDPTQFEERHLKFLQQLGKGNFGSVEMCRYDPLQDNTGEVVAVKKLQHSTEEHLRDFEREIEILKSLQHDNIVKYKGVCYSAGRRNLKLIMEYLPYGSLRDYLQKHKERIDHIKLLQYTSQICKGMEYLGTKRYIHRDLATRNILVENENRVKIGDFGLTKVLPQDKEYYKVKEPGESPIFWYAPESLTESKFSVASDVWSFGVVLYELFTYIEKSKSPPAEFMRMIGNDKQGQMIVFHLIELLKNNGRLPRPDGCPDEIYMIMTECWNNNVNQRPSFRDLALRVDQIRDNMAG
Source text: as §1, §2, §3, §4, §5, §6, §7, §8, §9, §10

T1 sequence (P23458 866-1154): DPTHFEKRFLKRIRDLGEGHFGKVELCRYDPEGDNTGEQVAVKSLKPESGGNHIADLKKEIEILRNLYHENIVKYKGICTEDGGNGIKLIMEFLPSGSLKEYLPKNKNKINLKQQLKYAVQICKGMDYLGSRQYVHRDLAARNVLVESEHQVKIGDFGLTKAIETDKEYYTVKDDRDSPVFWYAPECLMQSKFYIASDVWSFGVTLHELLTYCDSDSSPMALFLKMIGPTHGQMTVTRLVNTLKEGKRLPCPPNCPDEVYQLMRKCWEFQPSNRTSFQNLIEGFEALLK

SMILES	IC50 [1] [nM]	IC50 [2] [nM]	IC50 [3] [nM]	IC50 [4] [nM]
COc1cc(-c2cnc3cccc(-c4ccc(CS(C)(=O)=O)cc4)c3n2)ccc1OCCN1CCOCC1 [Example 37, 8-(4-Methanesulfonylmethyl-phenyl)-2-[3-methoxy-4-(2-morpholin-4-yl-ethoxy)-phenyl]-quinoxaline]	68	3080	780	14
Cc1cc(-c2cnc3cccc(-c4ccc(CN5CCS(=O)(=O)CC5)cc4)c3n2)ccc1C(=O)N1CCN(C)CC1 [Example 40, (4-{8-[4-(1,1-Dioxido-thiomorpholin-4-ylmethyl)-phenyl]-quinoxalin-2-yl}-2-methyl-phenyl)-(4-methyl-piperazin-1-yl)-methanone]	78.4	160	627	7.3
O=C(Cc1ccc(-c2cccc3ncc(-c4ccc(N5CCOCC5)cc4)nc23)cc1)N1CCOCC1 [Example 45, 1-Morpholin-4-yl-2-{4-[3-(4-morpholin-4-yl-phenyl)-quinoxalin-5-yl]-phenyl}-ethanone]	190	2400	2200	30
COCCOc1ccc(-c2cnc3cccc(-c4ccc(CN5CCS(=O)(=O)CC5)c(F)c4)c3n2)cc1OC [Example 48, 8-[4-(1,1-Dioxido-thiomorpholin-4-ylmethyl)-3-fluoro-phenyl]-2-[3-methoxy-4-(2-methoxy-ethoxy)-phenyl]-quinoxaline]	9.9	150	77	< 3
COCCOc1ccc(-c2cnc3cccc(-c4ccc(CC(=O)N5CCOCC5)c(F)c4)c3n2)cc1OC [Example 49, 2-(2-Fluoro-4-{3-[3-methoxy-4-(2-methoxy-ethoxy)-phenyl]-quinoxalin-5-yl}-phenyl)-1-morpholin-4-yl-ethanone]	260	1220	4400	38
Cc1cc(-c2cnc3cccc(-c4ccc(CN5CCOCC5)c(F)c4)c3n2)ccc1C(=O)N1CCOCC1 [Example 58, {4-[8-(3-Fluoro-4-morpholin-4-ylmethyl-phenyl)-quinoxalin-2-yl]-2-methyl-phenyl}-morpholin-4-yl-methanone]	90	220	320	11
Cc1cc(-c2cnc3cccc(-c4cc(F)c(CN5CCOCC5)c(F)c4)c3n2)ccc1C(=O)N1CCOCC1 [Example 59, {4-[8-(3,5-Difluoro-4-morpholin-4-ylmethyl-phenyl)-quinoxalin-2-yl]-2-methyl-phenyl}-morpholin-4-yl-methanone]	520	635	1950	20

The next lines start with the values.

IC50 [1] [nM]	IC50 [2] [nM]	IC50 [3] [nM]	IC50 [4] [nM]	SMILES
130	346	640	6.3	Cc1cc(-c2cnc3cccc(-c4ccc(CC(=O)N5CCOCC5)cc4)c3n2)ccc1C(=O)N1CCN(C)CC1 [Example 41, 2-(4-{3-[3-Methyl-4-(4-methyl-piperazine-1-carbonyl)-phenyl]-quinoxalin-5-yl}-phenyl)-1-morpholin-4-yl-ethanone]
110	2820	1600	20	Cc1cc(-c2cccc3ncc(-c4ccc(N5CCOCC5)cc4)nc23)ccc1C(=O)N1CCOCC1 [Example 46, {2-Methyl-4-[3-(4-morpholin-4-yl-phenyl)-quinoxalin-5-yl]-phenyl}-morpholin-4-yl-methanone]
17	140	65	< 3	Cc1cc(-c2cnc3cccc(-c4ccc(CN5CCS(=O)(=O)CC5)c(F)c4)c3n2)ccc1C(=O)N(C)C [Example 54, 4-{8-[4-(1,1-Dioxido-thiomorpholin-4-ylmethyl)-3-fluoro-phenyl]-quinoxalin-2-yl}-2,N,N-trimethyl-benzamide]
1700	3140	4200	90	Cc1cc(-c2cnc3cccc(-c4ccc(CN5CCOCC5)c(C(F)(F)F)c4)c3n2)ccc1C(=O)N(C)C [Example 55, 2,N,N-Trimethyl-4-[8-(4-morpholin-4-ylmethyl-3-trifluoromethyl-phenyl)-quinoxalin-2-yl]-benzamide]
150	471	570	12	Cc1cc(-c2cnc3cccc(-c4ccc(CN5CCOCC5)c(F)c4)c3n2)ccc1C(=O)N(C)C [Example 56, 4-[8-(3-Fluoro-4-morpholin-4-ylmethyl-phenyl)-quinoxalin-2-yl]-2,N,N-trimethyl-benzamide]
80	163	170	< 3	Cc1cc(-c2cccc3ncc(-c4ccc(C(=O)N5CCOCC5)c(C)c4)nc23)ccc1CN1CCS(=O)(=O)CC1 [Example 57, (4-{8-[4-(1,1-Dioxido-thiomorpholin-4-ylmethyl)-3-methyl-phenyl]-quinoxalin-2-yl}-2-methyl-phenyl)-morpholin-4-yl-methanone]
165	235	1400	15	Cc1cc(-c2cnc3cccc(-c4ccc(CN5CCS(=O)(=O)CC5)c(Cl)c4)c3n2)ccc1C(=O)N1CCOCC1 [Example 61, (4-{8-[3-Chloro-4-(1,1-dioxido-thiomorpholin-4-ylmethyl)-phenyl]-quinoxalin-2-yl}-2-methyl-phenyl)-morpholin-4-yl-methanone]
44.5	82	330	5.7	Cc1cc(-c2cnc3cccc(-c4ccc(CN5CCS(=O)(=O)CC5)c(F)c4)c3n2)ccc1C(=O)N1CCOCC1 [Example 62, (4-{8-[4-(1,1-Dioxido-thiomorpholin-4-ylmethyl)-3-fluoro-phenyl]-quinoxalin-2-yl}-2-methyl-phenyl)-morpholin-4-yl-methanone]
